Assay results taken from US10124007B2, “Combination of PI3K-inhibitors” (BAYER PHARMA AKTIENGESELLSCHAFT, priority 2013, dated 2018).
Where “and” joins values, the source holds several entries; their conditions need not be identical. Identical values can stand only once.

Columns and labels:
[1] = test system: 4T1-GFP-fluorescent mouse breast cancer cells; assay: 4T1-GFP syngeneic breast cancer bone metastasis model in mice; format: in vivo, Balb/c mice; details: for Survival Days after Treatment, Average: average of 10 survival animals; for Survival Days after Treatment, Average / Survival Days after Treatment: radium 223 300 kBq/kg iv once, Compound A1 75 mg/kg po QD; for Survival Days after Treatment: individual survival animals 1-10; for Adrenal glands with metastasis / Ovaries with metastasis / Kidneys with metastasis: non-survival animals sacrificed at day 12 or 13; for Kidneys with metastasis: macroscopic findings and fluorescence imaging
Procedure: The monotherapy and the combination of compound A1 and radium 223 were tested in a syngeneic animal model that resembles the characteristics of breast cancer bone metastatic disease in humans. This model can be effectively used for testing the effects of cancer drug candidates on the metastasis of breast cancer cells to bone.
To this extend, 4T1-GFP-fluorescent mouse breast cancer cells were inoculated into the left cardiac ventricle of 4-5 weeks old female Balb/c mice. Within one-two weeks after the inoculation, the animals developed osteolytic bone metastases that can be visualized by GFP-fluorescence and X-ray radiography.
On day 7 post tumor cell inoculation, animals were randomized according to radiography and presence of tumor metastases. On day 7, animals were dosed with a single dose of radium 223 or vehicle, daily dose of PI3K inhibitor or a combination treatment with single dose of radium 223 and daily continuous dosing of PI3K inhibitor. Half of the animals (n=10) from each treatment group were sacrificed on day 13 after inoculation, or earlier when they were moribund, half of the animals (N=10) were sacrificed when they became moribund. The osteolytic lesions and whole body tumor burden were measured by x-ray and fluorescence imaging at sacrifice. Furthermore, tissue samples from the left and right tibia and femur were collected for further histomorphometric analysis. Tissue was embedded in paraffin for histomorphometric analysis of bone and tumor area.
Groups: Control group (vehicle) received Alpharadin vehicle (sodium citrate buffer), iv once and PEG/Wfi 60:40 pH 4.0, po QD; radium 223 group was given at 300 kBq/kg of radium 223, iv once and PEG/Wfi 60:40 pH 4.0, po QD; PI3K group was given 75 mg/kg of Compound A1, po QD and radium 223 vehicle, iv once; the combination group was given 300 kBq/kg of radium 223, iv once and 75 mg/kg of Compound A1, po QD;

[2] = test system: LNCaP prostate cancer cells in bone; assay: Orthotopic LNCaP CRPC bone model in mice; format: in vivo; details: for Tumor growth (effect in words): LNCaP CRPC model; for Number of osteoclasts at tumor-bone interface (effect in words): TRAP staining; for Inhibition of progression of osteoblastic lesions / Growth/progression of osteoblastic lesions (effect in words): x-ray radiography; for Growth/progression of osteoblastic lesions (effect in words): lesion area
Source text: The monotherapy and the combination of compound A1 and radium 223 were further tested in an orthotopic model of LNCaP, a CRPC cell line in mice. The LNCaP cells are known to form osteoblastic and mixed lesions when inoculated to bone marrow cavity. We used this model for testing the effects of compound A1 and radium-223 as single agent and in combination on the growth of LNCaP prostate cancer cells in bone. The osteoblastic bone metastases was visualized by X-ray radiography about six weeks post tumor cell inoculation. Mice with established bone metastases were randomized and treated for 45 days. The following four experimental groups with 13-14 mice in each were included in the study:
1) Vehicle control (Compd A1 vehicle QD po)
2) Ra-223 300 kBq/kg (dosed twice at 4-week intervals)+vehicle QD po
3) Compd A1 75 mg/kg (po QD)
Body weights were determined twice a week. Blood samples were taken and the animals radiographed biweekly. The animals were sacrificed 45 days after dosing, or earlier if they were moribund. Terminal blood samples were taken. Tissue samples were collected and processed for gamma-counter measurements, microCT measurements and histomorphometry.

[3] = test system: MCF-7; assay: WST-1 based proliferation assay, MCF-7; format: cell-based, human; details: WST-1, days 1-5
Procedure: (§1) The effects of PI3K inhibitor Compound A1 and radium 223 in MCF-7 and 4T1 breast cancer cells and PC-3 and LNCaP prostate cancer cells were investigated in vitro as single agent and in combination. The effects were studied by measuring cell proliferation and apoptosis. Radium 223 and the reference inhibitor doxorubicin were added at day 0. The PI3K inhibitor(s) was added at day −1 (24 hours before addition of Alpharadin) and at day 4. The following two concentrations of the inhibitors and two concentrations of radium 223 in 4 replicates were tested:
(§2) The effects on cell proliferation were studied using a WST-1 based proliferation assay and the effects on apoptosis were studied in parallel plates by measuring caspase 3/7 activity. The measurements were performed at 4 different time points, days 1, 2, 3 and 5. Caspase activity was normalized to the cell number obtained with the WST-1 assay in parallel plates.

[4] = test system: 4T1; assay: WST-1 based proliferation assay, 4T1; format: cell-based, mouse; details: for 4T1 cell proliferation at lower dose (effect in words): lower (250 nM) dose
Procedure: as §1, §2

[5] = test system: PC-3; assay: WST-1 based proliferation assay, PC-3; format: cell-based, human; details: WST-1, days 1-5
Procedure: as §1, §2

[6] = test system: LNCaP; assay: WST-1 based proliferation assay, LNCaP; format: cell-based, human; details: for LNCaP cell proliferation (effect in words): WST-1, days 1-5
Procedure: as §1, §2

[7] = test system: MCF-7; assay: Caspase 3/7 apoptosis assay, MCF-7; format: cell-based, human; details: caspase 3/7 normalized to WST-1, day 2
Procedure: as §1, §2

[8] = test system: patients with CRPC (Castration Resistant Prostate Cancer) and bone metastases; details: cited from earlier work
[9] = single dose 250 kBq per kg body weight; cited from earlier work
[10] = test system: patients with bone metastases; details: cited from earlier work
[11] = fluorescence imaging at sacrifice

| SMILES | Survival Days after Treatment, Average [1] [days] | Whole body tumor burden (effect in words) [1, 11] | Survival Days after Treatment [1] | Adrenal glands with metastasis [1] [%] | Ovaries with metastasis [1] [%] | Kidneys with metastasis [1] [%] | Tumor growth (effect in words) [2] | Number of osteoclasts at tumor-bone interface (effect in words) [2] | Inhibition of progression of osteoblastic lesions [2] [%] | Growth/progression of osteoblastic lesions (effect in words) [2] | MCF-7 cell proliferation (effect in words) [3] | 4T1 cell proliferation at lower dose (effect in words) [4] | PC3 cell proliferation (effect in words) [5] | LNCaP cell proliferation (effect in words) [6] | MCF-7 apoptosis induction / tumor cell death (effect in words) [7] | further results |
| --- | --- | --- | --- | --- | --- | --- | --- | --- | --- | --- | --- | --- | --- | --- | --- | --- |
| COc1c(OC[C@H](O)CN2CCOCC2)ccc2c1N=C(NC(=O)c1cccnc1C)N1CCN=C21 [Compound A1, N-(8-{[(2R)-2-hydroxy-3-(morpholin-4-yl)propyl]oxy}-7-methoxy-2,3-dihydroimidazo[1,2-c]quinazolin-5-yl)-2-methylpyridine-3-carboxamide] | 6.6 | significantly decreased | 6 days (5×) and 4 days and 8 days (4×) | 61 | 56 | 17 | potently inhibited | decreased | 50 | significantly inhibited | potent anti-proliferative activity | only moderate inhibition | better anti-proliferactive activity | strong anti-proliferative effects | only at high dose can induce apoptosis | Whole body tumor burden reduction ([1]; fluorescence imaging at sacrifice, day 13 after inoculation, 6 days of treatment): 67%; Whole body tumor burden (effect in words) ([1]; fluorescence imaging at sacrifice, listed as compound A1): decreased; Reduction of kidney metastases ([1]; frequency of soft tissue metastases): 73%; Relative tumor area in bone marrow area (effect in words) ([1]; histomorphometry, ANOVA p=0.099477): Trends of inhibition; Reduction in total osteolytic area ([1]; radiography at sacrifice): 53.2%; Total osteolytic area / tumor-induced osteolysis (effect in words) ([1]; radiography at sacrifice): strongly inhibited |
| COc1cccc2c1C(=O)c1c(O)c3c(c(O)c1C2=O)C[C@@](O)(C(=O)CO)C[C@@H]3O[C@H]1C[C@H](N)[C@H](O)[C@H](C)O1 [doxorubicin] | – | – | – | – | – | – | – | – | – | – | inhibited proliferation | – | inhibited proliferation | inhibited proliferation | – | 4T1 cell proliferation (effect in words) ([4]; WST-1, days 1-5): inhibited proliferation |
| [Cl][223Ra][Cl] [radium 223, radium-223 dichloride] | 6.8 | not statistically significant | 8 days (4×) and 6 days (6×) | 94 | 94 | 22 | potently inhibited | eradicated | 56 | significantly inhibited | only slight inhibition | only moderate inhibition | moderate inhibition | – | could not induce tumor cell death | Number of osteoclasts at tumor-bone interface (effect in words) ([2]; listed as Ra-223): decreased; 4T1 cell proliferation at higher dose (effect in words) ([4]; higher dose): strong anti-proliferative effects; LNCaP cell proliferation at high dose (effect in words) ([6]; high dose (1600 Bq/mL)): effective; Median survival longer than placebo ([8]; in vivo): 2.8 months; Time to first skeletal-related event ([8]; in vivo): significantly prolonged; Reduction in risk of death compared with placebo ([8]; overall survival): 30.5%; Observed adverse reactions [9]: diarrhea and reversible myelosuppression; Disease-related biomarkers (bone ALP, PSA) ([10]; Phase 2 studies): improves disease-related biomarkers; Pain ([10]; Phase 2 studies): reduces pain; Safety profile ([10]; phase 1 and 2 studies): favorable safety profile, with minimal myelotoxicity |
